This is an account of results in ChEMBL document CHEMBL1156372, “New halogenated marine prostanoids with cytotoxic activity from the Okinawan soft coral Clavularia viridis” (J Nat Prod, 2001).

Molecules are shown by their SMILES. ≈ marks a conversion by molar mass, not a printed value.

What all share (assay type): functional, cell-based
Experiment [1] deals with MOLT-4. Briefly: Cytotoxicity against human MOLT4 cells by MTT assay. A general note: Tetrazolium assays rely on reduction of a dye to a coloured formazan, in cell work by metabolically active cells.
Experiment [2] concerns DLD-1. The experiment is described as follows: Cytotoxicity against human DLD1 cells by MTT assay.
For experiment [3], the system named is IMR-90. The experiment is described as follows: Cytotoxicity against human IMR90 cells by MTT assay.

`CCCCC/C=C\C[C@@]1(O)C=C(I)C(=O)[C@@H]1[C@H](/C=C\CCCC(=O)OC)OC(C)=O`: the IC50 (commonly the concentration at which inhibition is half-maximal) came to 0.52 µg/mL (≈ 0.977 µM) in experiment [1], 0.6 µg/mL (≈ 1.13 µM) in experiment [2] and 4.5 µg/mL (≈ 8.45 µM) in experiment [3].
